The record followed here is patent US20260137706A1, “METHODS OF TREATING INFLAMMATORY DISEASES” (INTERLINE THERAPEUTICS, INC., priority 2023, published 2026).

Each structure is given as a SMILES string.

Experiment [1] concerns NF-κB pathway (SEAP) in THP1-Dual cells. Kind of experiment: THP-1 Dual cell SEAP assay (L18-MDP stimulated). In kind it is cell-based. Conditions: Homo sapiens, THP1-Dual, read-out: NF-κB THP1 IC50 bin. A digest of the protocol:
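IC50 values derive from non-linear regression of % inhibition, calculated against DMSO/L18-MDP-treated wells after media-only subtraction. NF-κB SEAP activity was read at OD 620-655 nm (QUANTI-Blue, 2 h, 37 °C) from supernatants of THP1-Dual cells. Cells had been compound-treated 30 min before overnight (20-24 h) stimulation with 10 ng/mL final L18-MDP.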

In experiment [2] the target is T1, GST-RIPK2 fusion protein (human RIPK2, amino acids 1-310) (Homo sapiens, UniProt O43353).
T1 construct: made in house; host or cells: baculovirus infected Sf9 cells
Kind of experiment: RIPK2 binding competition assay (TR-FRET, Tracer 199 displacement). Conditions: 10 nM Tracer 199, 1 nM GST-RIPK2, read-out: RIPK2 IC50. Summed up:
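IC50 derived from the TR-FRET emission ratio (665/620 nm, 337 nm excitation), normalized with no-inhibitor and no-enzyme controls. Incubation 45 min at 22 °C, pH 7.5 Tris buffer, with final 10 nM tracer, 1 nM Sf9-expressed GST-RIPK2 fragment (aa 1-310) and 0.5 nM Tb-labelled anti-GST.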
(In general: TR-FRET usually uses a lanthanide donor and a delayed reading to cut background.)

In experiment [3] the target is T2, binding of His-XIAP(BIR2)-avi fusion protein to GST-RIPK2 fusion protein (RIPK2/XIAP) (Homo sapiens, UniProt O43353).
T2 construct: made in house; host or cells: baculovirus infected Sf9 cells
Kind of experiment: RIPK2-XIAP binding competition PPI assay (TR-FRET). Conditions: RIPK2/XIAP binding competition PPI assay; for Emax: Amax, read-out: PPI Amax bin; for IC50: read-out: PPI IC50 bin. Summed up: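 Compounds (in DMSO, 100-fold stock) incubated 120 min at 23 °C with 1 nM GST-RIPK2 (aa 1-310) and 25 nM His-XIAP(BIR2 aa 152-231)-avi, plus anti-His-XL665 and anti-GST-Tb, in pH 7.5 Tris buffer. Read-out: 665/520 nm emission ratio. Normalized to no-inhibitor (0%) and 50 nM GSK583 (−100%); Amax binned A–D.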

T2 sequence (O43353 1-310 limits assumed): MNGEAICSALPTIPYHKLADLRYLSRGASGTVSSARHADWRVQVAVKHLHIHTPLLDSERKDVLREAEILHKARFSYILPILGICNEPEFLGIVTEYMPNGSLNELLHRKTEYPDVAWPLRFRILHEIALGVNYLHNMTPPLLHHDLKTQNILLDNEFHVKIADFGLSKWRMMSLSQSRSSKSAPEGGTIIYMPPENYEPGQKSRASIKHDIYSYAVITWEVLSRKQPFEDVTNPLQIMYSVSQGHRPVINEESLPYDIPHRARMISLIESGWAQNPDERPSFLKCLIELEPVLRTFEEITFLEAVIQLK
T1 sequence (O43353 1-310): as the sequence (O43353 1-310 limits assumed) above

Turning to `CC(C)(C)S(=O)(=O)c1cn2c(-c3cc(F)c(N)nc3F)cnc2cc1OCCN1CC(O)C1` [Example 41, 1-(2-((3-(6-amino-2,5-difluoropyridin-3-yl)-6-(tert-butylsulfonyl)imidazo[1,2-a]pyridin-7-yl)oxy)ethyl)azetidin-3-ol], the figures for the IC50 in experiment [1], in experiment [2] and in experiment [3] were over 1 µM, 0.0025 to 0.02 µM and 0.0025 to 0.02 µM, respectively. For the same compound, the Emax in experiment [3] was over 80%.

Consider `COc1cc2ncc(-c3cccc(NS(=O)(=O)C4CCOCC4)c3)n2cc1S(=O)(=O)C(C)(C)C` [Example 147, N-(3-(6-(tert-butylsulfonyl)-7-methoxyimidazo[1,2-a]pyridin-3-yl)phenyl)tetrahydro-2H-pyran-4-sulfonamide], for which the concentration for half-maximal inhibition (IC50) (as a rule, the midpoint of a concentration-inhibition curve) fell in the range of 0.25 to 1 µM in experiment [1], 0.0025 to 0.02 µM in experiment [2] and 0.0025 to 0.02 µM in experiment [3]. Further, the Emax in experiment [3] is over 80%.

On to `CC(C)(C)S(=O)(=O)c1cc2c(-c3cc4cc[nH]c4nc3F)cnn2cc1OCCO` [Example 215, 2-((5-(tert-butylsulfonyl)-3-(6-fluoro-1H-pyrrolo[2,3-b]pyridin-5-yl)pyrazolo[1,5-a]pyridin-6-yl)oxy)ethan-1-ol], for which the IC50 in experiment [1] was under 0.05 µM; in experiment [2], under 0.001 µM; in experiment [3], under 0.001 µM. Moreover, the Emax in experiment [3] was over 80%.

For `C[C@@H](O)COc1cc2ncc(-c3ccc(N)nc3F)n2cc1S(=O)(=O)C(C)(C)C` [Example 250, (R)-1-((3-(6-amino-2-fluoropyridin-3-yl)-6-(tert-butylsulfonyl)imidazo [1,2-a]pyridin-7-yl)oxy)propan-2-ol], the half-maximal inhibitory concentration (IC50) was over 1 µM in experiment [1], 0.0025 to 0.02 µM in experiment [2] and over 0.02 µM in experiment [3]. The Emax in experiment [3] was over 80%.

Consider `Nc1cc(-c2cnn3ccc(C(F)(F)F)cc23)cc(F)n1` [Example 3, 6-fluoro-4-(5-(trifluoromethyl)pyrazolo[1,5-a]pyridin-3-yl)pyridin-2-amine], for which the IC50 is 0.25 to 1 µM in experiment [1], over 0.02 µM in experiment [2] and over 0.02 µM in experiment [3]. Further, the Emax in experiment [3] is under 30%.

With `COc1cc2ncc(-c3cnn4c(C)c(C)ccc34)n2cc1S(=O)(=O)C(C)(C)C` [Example 107, 6-(tert-butylsulfonyl)-3-(6,7-dimethylpyrazolo[1,5-a]pyridin-3-yl)-7-methoxyimidazo[1,2-a]pyridine], the values for the IC50 in experiment [1], in experiment [2] and in experiment [3] were over 1 µM, over 0.02 µM and over 0.02 µM, respectively. For the same compound, in experiment [3], the Emax was in the range of 55 to 80%.

As for `COc1cc2ncc(-c3cc(F)c(OC)c(NS(=O)(=O)CC4CC4)c3)n2cc1S(=O)(=O)C(C)(C)C` [Example 159, N-(5-(6-(tert-butylsulfonyl)-7-methoxyimidazo[1,2-a]pyridin-3-yl)-3-fluoro-2-methoxyphenyl)-1-cyclopropylmethanesulfonamide], the figures for the half-maximal inhibitory concentration (IC50) in experiment [1], in experiment [2] and in experiment [3] were under 0.05 µM, under 0.001 µM and under 0.001 µM, respectively. Moreover, the Emax in experiment [3] was over 80%.

Consider `CC(C)(C)S(=O)(=O)c1cn2c(-c3cnc4[nH]cnc4c3)cnc2cc1OCCO` [Example 229, 2-((6-(tert-butylsulfonyl)-3-(3H-imidazo[4,5-b]pyridin-6-yl)imidazo[1,2-a]pyridin-7-yl)oxy)ethan-1-ol], for which the IC50 in experiment [1] is over 1 µM; in experiment [2] it was over 0.02 µM; in experiment [3] it was over 0.02 µM. Further, the Emax in experiment [3] was under 30%.

For `COc1cc2ncc(-c3cn(C)c4ncccc34)n2cc1S(=O)(=O)C(C)(C)C` [Example 99, 6-(tert-butylsulfonyl)-7-methoxy-3-(1-methyl-1H-pyrrolo[2,3-b]pyridin-3-yl)imidazo[1,2-a]pyridine], the IC50 was over 1 µM in experiment [1], 0.0025 to 0.02 µM in experiment [2] and over 0.02 µM in experiment [3]. In addition, the Emax in experiment [3] was under 30%.

`COc1cc2ncc(-c3cc(F)c(OC)c(NS(=O)(=O)C4(CO)CC4)c3)n2cc1S(=O)(=O)C(C)(C)C` [Example 180, N-(5-(6-(tert-butylsulfonyl)-7-methoxyimidazo[1,2-a]pyridin-3-yl)-3-fluoro-2-methoxyphenyl)-1-(hydroxymethyl)cyclopropane-1-sulfonamide]: the IC50 in experiment [1] was 0.05 to 0.25 µM; in experiment [2] it was 0.001 to 0.0025 µM; in experiment [3] it was under 0.001 µM. Moreover, the Emax in experiment [3] was over 80%.

For `CC(C)(C)C(C)(O)c1cn2c(-c3cc(F)c(N)nc3F)cnc2cc1OCCO` (single isomer, unassigned) [Example 295], the IC50 is over 1 µM in experiment [1], 0.0025 to 0.02 µM in experiment [2] and 0.0025 to 0.02 µM in experiment [3]. Besides, the Emax in experiment [3] was over 80%.

Take `CC(C)(C)S(=O)(=O)c1cn2c(-c3cnc4cn[nH]c4c3)cnc2cc1OCCO` [Example 210, 2-((6-(tert-butylsulfonyl)-3-(1H-pyrazolo[4,3-b]pyridin-6-yl)imidazo[1,2-a]pyridin-7-yl)oxy)ethan-1-ol]: the IC50 in experiment [1] is over 1 µM; in experiment [2] it was over 0.02 µM; in experiment [3], over 0.02 µM. In experiment [3], the Emax was under 30%.

Take `COc1cc2ncc(-c3cc(F)nc(NCCCO)c3)n2cc1C(F)(F)F` [Example 1, 3-((6-Fluoro-4-(7-methoxy-6-(trifluoromethyl)imidazo[1,2-a]pyridin-3-yl)pyridin-2-yl)amino)propan-1-ol]: the values for the IC50 in experiment [1], in experiment [2] and in experiment [3] were 0.05 to 0.25 µM, 0.0025 to 0.02 µM and over 0.02 µM, respectively. Besides, in experiment [3], the Emax is under 30%.

For `CC(C)(C)S(=O)(=O)c1cn2c(-c3cnc4[nH]ccc4n3)cnc2cc1OCCO` [Example 277, 2-((6-(tert-butylsulfonyl)-3-(5H-pyrrolo[2,3-b]pyrazin-2-yl)imidazo[1,2-a]pyridin-7-yl)oxy)ethan-1-ol], the IC50 in experiment [1] is 0.25 to 1 µM; in experiment [2] it was 0.0025 to 0.02 µM; in experiment [3], over 0.02 µM. Besides, the Emax in experiment [3] was under 30%.

With `COc1cc2ncc(-c3cc(F)c(OC)c4[nH]cnc34)n2cc1S(=O)(=O)C(C)(C)C` [Example 117, 4-(6-(tert-butylsulfonyl)-7-methoxyimidazo[1,2-a]pyridin-3-yl)-6-fluoro-7-methoxy-1H-benzo[d]imidazole], the IC50 in experiment [1] was in the range of 0.25 to 1 µM; in experiment [2] it was 0.0025 to 0.02 µM; in experiment [3], 0.0025 to 0.02 µM. Moreover, in experiment [3], the Emax lay within 30 to 55%.

Turning to `COc1cc2ncc(-c3cc(F)c(N)nc3F)n2cc1C1(O)CCOCC1` [Example 75, 4-(3-(6-amino-2,5-difluoropyridin-3-yl)-7-methoxyimidazo[1,2-a]pyridin-6-yl)tetrahydro-2H-pyran-4-ol], the IC50 was over 1 µM in experiment [1], over 0.02 µM in experiment [2] and over 0.02 µM in experiment [3]. Also, in experiment [3], the Emax was over 80%.

Turning to `C[C@@H](O)COc1cn2ncc(-c3cc(Cl)c(N)nc3F)c2cc1S(=O)(=O)C(C)(C)C` [Example 254, (R)-1-((3-(6-amino-5-chloro-2-fluoropyridin-3-yl)-5-(tert-butylsulfonyl)pyrazolo [1,5-a]pyridin-6-yl)oxy)propan-2-ol], the 50% inhibitory concentration (IC50) in experiment [1] lay in the range of 0.05 to 0.25 µM; in experiment [2], 0.001 to 0.0025 µM; in experiment [3] it was 0.001 to 0.0025 µM. Besides, the Emax in experiment [3] was over 80%.

With `COc1cc2ncc(-c3cc(F)c(OC)c(NC(=O)Cc4cnn(C)c4)c3)n2cc1S(=O)(=O)C(C)(C)C` [Example 297, N-(5-(6-(tert-butylsulfonyl)-7-methoxyimidazo[1,2-a]pyridin-3-yl)-3-fluoro-2-methoxyphenyl)-2-(1-methyl-1H-pyrazol-4-yl)acetamide], the IC50 in experiment [1] lay within 0.05 to 0.25 µM; in experiment [2] it was 0.001 to 0.0025 µM; in experiment [3] it was 0.001 to 0.0025 µM. Also, the Emax in experiment [3] is over 80%.

Turning to `COc1cc2ncc(-c3cccc(NS(=O)(=O)C4(C)CC4)c3)n2cc1S(=O)(=O)C(C)(C)C` [Example 149, N-(3-(6-(tert-butylsulfonyl)-7-methoxyimidazo[1,2-a]pyridin-3-yl)phenyl)-1-methylcyclopropane-1-sulfonamide], the IC50 is over 1 µM in experiment [1], 0.0025 to 0.02 µM in experiment [2] and 0.0025 to 0.02 µM in experiment [3]. Also, the Emax in experiment [3] was over 80%.

In the case of `Cc1nc(N)c(F)cc1-c1cnc2cc(OCCO)c(S(=O)(=O)C(C)(C)C)cn12` [Example 51, 2-((3-(6-amino-5-fluoro-2-methylpyridin-3-yl)-6-(tert-butylsulfonyl)imidazo[1,2-a]pyridin-7-yl)oxy)ethan-1-ol], the results for the IC50 in experiment [1], in experiment [2] and in experiment [3] were over 1 µM, over 0.02 µM and over 0.02 µM, respectively. For the same compound, the Emax in experiment [3] was under 30%.

On to `CC(C)(C)S(=O)(=O)c1cn2c(-c3cc(F)c(N)nc3F)cnc2cc1OCC1(O)COC1` [Example 38, 3-(((3-(6-amino-2,5-difluoropyridin-3-yl)-6-(tert-butylsulfonyl)imidazo[1,2-a]pyridin-7-yl)oxy)methyl)oxetan-3-ol], for which the IC50 in experiment [1] was in the range of 0.05 to 0.25 µM; in experiment [2], 0.001 to 0.0025 µM; in experiment [3], 0.0025 to 0.02 µM. Also, the Emax in experiment [3] is over 80%.
